Measurements published in PubChem BioAssay (NCI).
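Dose response: 5 concentrations. Exposure: 48 h. Format: 96-well plates. Endpoint: linear interpolation; highest concentration if not reached. At the TGI there is no net growth.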

These compounds were tested on 786-0 renal (assay: NCI tumour cell line growth inhibition, 48 h).

`COC(=O)[C@@]1(C)/C(=N/NS(=O)(=O)c2ccc(C)cc2)CCC[C@@H]1C` and `COC(=O)C(C(=O)Cc1ccccc1[N+](=O)[O-])C(=O)OC` cannot be ordered by TGI: > 100 µM for the first, > 100 µM for the second.

`COc1ccc(OC)c(/C=C(/C#N)c2ccccc2)c1` and `COc1ccc(C(C#N)NNC(=O)Cc2ccccc2)cc1OC` (stereo not given) cannot be ordered by TGI: > 100 µM for the first, > 100 µM for the second.

First: CCCCC/C=C1\CCC(CN(C)C)C1=O (stereo not given)
Second: CCOC(=O)/C(=C/c1ccc(N(C)C)cc1)N(CC)CC
The TGI of the first is lower: 7.02 µM for the first, > 100 µM for the second.

`O=C(Cn1c(-c2ccccc2)cc2ccccc21)N1CCCC1` and `O=C(CC(C(=O)c1ccsc1)c1ccccc1)c1ccccc1` (stereo not given) cannot be ordered by TGI: > 100 µM for the first, > 100 µM for the second.

Going from `Cc1ccc(Cl)c2c(=O)c3ccc(N)cc3sc12` to `CC1CN=C(N(C(=O)Nc2ccccc2)c2ccc(Cl)c(Cl)c2)S1` (stereo not given), the TGI falls from > 100 µM to 93.8 µM.

`C=CCN1CCC(O)(c2cc(C(=O)OCC)[nH]c2-c2cc(C)no2)C1` (stereo not given) and `CCOC1c2cc(C(C)C)c(O)c(O)c2[C@@]23CCCC(C)(C)C2C1OC3=O` (stereo not given in full) cannot be ordered by TGI: > 100 µM for the first, > 100 µM for the second.

`CC1CN=C(N(C(=O)Nc2ccc(Cl)c(Cl)c2)c2ccccc2)S1` (stereo not given) and `CCOC(=O)Cc1ccc(Nc2nc3ccccc3nc2C(=O)OCC)cc1` cannot be ordered by TGI: > 100 µM for the first, > 100 µM for the second.

Compared with `CNCCCn1c2ccccc2c2c3c(c(-c4ccsc4)cc21)C(=O)NC3=O`, `C=C(C)C1CCC2(C)CC1c1c(c(C)cc3c1[nH]c1ccccc13)O2` (stereo not given) is higher in TGI: 1.48 µM for the first, > 25 µM for the second.

Compared with `CC(C)(C)OC/C=C(/CO)[C@@H]1C=C[C@H](O)C1`, `CC(C)(C)[Si](C)(C)Oc1ccc(C2CNC(=O)C23CCC(=O)N3Cc2ccccc2)cc1` (stereo not given) is lower in TGI: > 100 µM for the first, 45.3 µM for the second.

`CN(CCN(C)C(=O)CCn1cc(F)c(=O)[nH]c1=O)C(=O)CCn1cc(F)c(=O)[nH]c1=O` and `COc1cccc(C2CC23C(=O)NC(=O)NC3=O)c1` (stereo not given) cannot be ordered by TGI: > 100 µM for the first, > 100 µM for the second.

Going from `C=CN1C(=O)[C@H](Oc2ccccc2)[C@@H]1c1ccccc1` to `O=S(=O)(c1ccccc1)N1N=C2c3ccccc3CCC[C@H]2C1c1ccccc1` (stereo not given in full), the TGI rises from 33.1 µM to > 100 µM.

Compared with `CS(=O)(=O)c1ccc(-c2cc(-c3ccc(S(C)(=O)=O)cc3)[n+](-c3cc(-c4ccccc4)c([O-])c(-c4ccccc4)c3)c(-c3ccc(S(C)(=O)=O)cc3)c2)cc1`, `O=C(CSc1c2ccccc2nc2ccccc12)Nc1ccccc1-c1ccccc1NC(=O)CSc1c2ccccc2nc2ccccc12` is lower in TGI: > 100 µM for the first, 69.4 µM for the second.

Compared with `Nc1ccn([C@H]2CO[C@@H](CO)[C@@H]2O)c(=O)n1`, `CC1(C)OC[C@@H]([C@H](O)C2C=CC(=O)S2)O1` (stereo not given in full) is lower in TGI: > 100 µM for the first, 59.3 µM for the second.

Going from `CC(C)=CC1CC(=[N+]=[N-])C(=O)C1(C)C` (stereo not given) to `CC(=O)O[C@H]1CC[C@@]2(C)C(=CC[C@H]3[C@@H]4C/C(=C\c5ccc(N(C)C)cc5)[C@H](OC(C)=O)[C@@]4(C)CC[C@@H]32)C1`, the TGI falls from > 100 µM to 19.1 µM.

Each compound was assayed on A498 renal (assay: NCI tumour cell line growth inhibition, 48 h).

`COC(=O)[C@@]1(C)/C(=N/NS(=O)(=O)c2ccc(C)cc2)CCC[C@@H]1C` and `O=S(=O)(c1ccccc1)N1N=C2c3ccccc3CCC[C@H]2C1c1ccccc1` (stereo not given in full) cannot be ordered by TGI: > 100 µM for the first, > 100 µM for the second.

First: COc1ccc(OC)c(/C=C(/C#N)c2ccccc2)c1
Second: O=C(CC(C(=O)c1ccsc1)c1ccccc1)c1ccccc1 (stereo not given)
The TGI of the first is lower: 83.8 µM for the first, > 100 µM for the second.

Compared with `Cc1ccc(Cl)c2c(=O)c3ccc(N)cc3sc12`, `CC1CN=C(N(C(=O)Nc2ccccc2)c2ccc(Cl)c(Cl)c2)S1` (stereo not given) is 1.8-fold higher in TGI: 36.8 µM for the first, 64.9 µM for the second.

Compared with `C=CCN1CCC(O)(c2cc(C(=O)OCC)[nH]c2-c2cc(C)no2)C1` (stereo not given), `CCOC(=O)Cc1ccc(Nc2nc3ccccc3nc2C(=O)OCC)cc1` is lower in TGI: > 100 µM for the first, 86.7 µM for the second.

First: CC1CN=C(N(C(=O)Nc2ccc(Cl)c(Cl)c2)c2ccccc2)S1 (stereo not given)
Second: CC(C)(C)[Si](C)(C)Oc1ccc(C2CNC(=O)C23CCC(=O)N3Cc2ccccc2)cc1 (stereo not given)
The TGI of the first is higher: > 100 µM for the first, 25.1 µM for the second.

First: CNCCCn1c2ccccc2c2c3c(c(-c4ccsc4)cc21)C(=O)NC3=O
Second: COc1cccc(C2CC23C(=O)NC(=O)NC3=O)c1 (stereo not given)
The TGI of the first is lower: < 0.0254 µM for the first, > 100 µM for the second.

`CC(C)(C)OC/C=C(/CO)[C@@H]1C=C[C@H](O)C1` and `Nc1ccn([C@H]2CO[C@@H](CO)[C@@H]2O)c(=O)n1` cannot be ordered by TGI: > 100 µM for the first, > 100 µM for the second.

`C=CN1C(=O)[C@H](Oc2ccccc2)[C@@H]1c1ccccc1` and `O=C(CSc1c2ccccc2nc2ccccc12)Nc1ccccc1-c1ccccc1NC(=O)CSc1c2ccccc2nc2ccccc12` cannot be ordered by TGI: > 100 µM for the first, > 93.4 µM for the second.

Going from `CS(=O)(=O)c1ccc(-c2cc(-c3ccc(S(C)(=O)=O)cc3)[n+](-c3cc(-c4ccccc4)c([O-])c(-c4ccccc4)c3)c(-c3ccc(S(C)(=O)=O)cc3)c2)cc1` to `CC(=O)O[C@H]1CC[C@@]2(C)C(=CC[C@H]3[C@@H]4C/C(=C\c5ccc(N(C)C)cc5)[C@H](OC(C)=O)[C@@]4(C)CC[C@@H]32)C1`, the TGI falls from > 100 µM to 36.6 µM.

First: CC(C)=CC1CC(=[N+]=[N-])C(=O)C1(C)C (stereo not given)
Second: CC1(C)OC[C@@H]([C@H](O)C2C=CC(=O)S2)O1 (stereo not given in full)
The TGI of the first is higher: > 100 µM for the first, 51.1 µM for the second.

Each compound was assayed on A549 NSCLC (assay: NCI tumour cell line growth inhibition, 48 h).

`COC(=O)[C@@]1(C)/C(=N/NS(=O)(=O)c2ccc(C)cc2)CCC[C@@H]1C` and `COC(=O)C(C(=O)Cc1ccccc1[N+](=O)[O-])C(=O)OC` cannot be ordered by TGI: > 100 µM for the first, > 100 µM for the second.

`COc1ccc(OC)c(/C=C(/C#N)c2ccccc2)c1` and `O=C(Cn1c(-c2ccccc2)cc2ccccc21)N1CCCC1` cannot be ordered by TGI: > 100 µM for the first, > 100 µM for the second.

`CCCCC/C=C1\CCC(CN(C)C)C1=O` (stereo not given) and `C=CCN1CCC(O)(c2cc(C(=O)OCC)[nH]c2-c2cc(C)no2)C1` (stereo not given) cannot be ordered by TGI: > 63.5 µM for the first, > 100 µM for the second.

`Cc1ccc(Cl)c2c(=O)c3ccc(N)cc3sc12` gave a TGI of 85.3 µM.
